These results are taken from patent US5081264A, “Bioxanthracene derivatives” (Kyowa Hakko Kabushiki Kaisha, priority 1989, dated 1992).

The structures appear in SMILES notation. Read-outs that look alike come from different tables or passages of the source.

The target of series [1] is N-methyl-D-aspartic acid receptor. As to the kind of experiment: Binding activity to N-methyl-D-aspartic acid receptor ([3H]TCP binding in rat brain membranes). To be noted: rat brain membranes (crushed cerebrum). As to the method:
The binding activity of Compounds ES-242 to N-methyl-D-aspartic acid receptor was measured as follows.
With reference to the modified method of Vignon et al [Brain Research, 280, 194-197 (1983)], the binding activity of ES-242 to N-[1-(2-thienyl) cyclohexyl]-3,4-[^3 H]piperidine ([^3 H]TCP) in rat brain membranes was measured by the use of a crushed cerebrum of a rat and expressed by IC50 viz. a concentration required for 50% inhibition of the binding ability to the sample.

Series [2] relates to nerve cells (cerebellum of a rat). The series can be described thus: Protection of cultured nerve cells (cerebellum) against L-glutamic acid. In kind it is cell-based. To be noted: L-glutamic acid 100 μM; for inhibition of the death of nerve cells induced by L-glutamic acid: cerebellum (Tables 4 and 5); for viability at 1 µg/mL / viability at 5 µg/mL / viability at 10 µg/mL: Rattus norvegicus, cerebellum, read-out: survival ratio of the cells (SR); for viability at 1 µg/mL: test compound 1 μg/ml; for viability at 5 µg/mL: test compound 5 μg/ml; for viability at 10 µg/mL: test compound 10 μg/ml. As to the method: (§1) The septal area was taken out from the brain of a fetal rat. The cells were dispersed using trypsin and deoxyribonuclease and were cultured for one day on a Pit medium (Dulbecco modified Eagle medium or Ham F12 medium, commercial products of Nissui Seiyaku K. K., Japan) containing 5% horse serum and 5% fetal calf serum. After adding cytosine arabinoide (10μM) to the medium, the culturing was continued for 10 days.
(§2) L-glutamic acid (100 μM) and ES-242-1 were added to the cultured broth to measure the survival ratio of the nerve cells. For control purposes, a similar procedure was carried out with the exception that glutamic acid (100μM) and/or ES-242-1 were replaced by dimethylsulfoxide (DMSO) (0.5%). The cells which survived were counted by the fluorescence-dying method with reference to the Costa et al. method [Proc. Natl. Acad. Sci., U.S.A., 85, 7351-7355 (1988)].
(§3) The results shown in the following Table 3 were obtained in a manner similar to that described above except the cerebellum was used instead of the septal area. In the following tables, the term "GA" denotes L-glutamic acid (unit 100μM) and the term "SR" denote the survival ratio of the cells (%).
The results shown in the following Tables 4 and 5 were obtained by a procedure similar to that described in Experiment 1 above with the exception that the cerebellum of a rat and ES-242-2 or ES-242-5 were respectively used instead of the septal area and ES-242-1.

Series [3] relates to nervous system. To be noted: literature report; cited from earlier work.
In series [4] the test system is N-methyl-D-aspartic acid receptors. To be noted: literature report; cited from earlier work.
For series [5] the following is noted: literature report; cited from earlier work.
The conditions of series [6]: literature report; cited from earlier work. The source holds these as a separate data set.
Series [7] relates to nerve cells (septal area of the brain of a fetal rat). As to the kind of experiment: Protection of cultured nerve cells (septal area) against L-glutamic acid. The class given is cell-based. To be noted: L-glutamic acid 100 μM. As to the method:
Protection of cultured nerve cells
as §1, §2, §3

Series [8] is described as follows: Solubility. The class given is physicochemical.
Series [9] concerns CAI area neurons of the hippocampus. As to the kind of experiment: Protection of nerve cells from ischaemic injury. The class given is in vivo, Mongolian gerbils. From the text:
Ischaemic injury of the nervous system was induced in the CAI area of the hippocampus of Mongolian gerbils by closing and reperfusing two cartoid arteries with reference to the Kirino et al method [Cerebral Nerve, Vol. 38, No. 12, 1157-1163 (1986)] as follows.
On each occasion, the test compound was suspended in a physiological solution of sodium chloride. The animal (body weight 60-70 g) was anesthetized with ether. The left and right common cartoid arteries were exposed through midcervical vertical skin incision and the anesthetic was discontinued. The cartoid arteries on both sides were occluded for 5 minutes using aneurism clips. Immediately after this, a given amount (100 mg/kg) of Compound ES-242-1 was given orally to the animal. One week after this, the animal was fixed by transcardic perfusion. Immediately after this, the brain was removed from the animal to prepare a sample of the histologic section containing the CIA area of the hippocampus. The number of normal cells of the CAI area neurons per 1 mm linear length was counted.
The above-mentioned treatment is hereinafter referred to as the ischaemic treatment.
For control purposes, a group of the animals were given a physiological solution of sodium chloride only, without ischaemic treatment. […]

The mark [10] stands for this setting: Table 5, control 88, GA alone 40.
The mark [11] stands for this setting: Table 4, control 95, GA alone 56.

As to `COc1cc(OC)c2c(O)c3c(c(-c4c5c(c(O)c6c(OC)cc(OC)cc46)COC(C)C5O)c2c1)C(O)C(C)OC3` (centres unmarked) [ES-242-4], in series [1], the “IC50 (50% inhibition of [3H]TCP binding)” value was 14.6 µg/mL.
Consider `COc1cc(OC)c2c(O)c3c(c(-c4c5c(c(O)c6c(OC)cc(OC)cc46)COC(C)C5O)c2c1)CC(C)OC3` (centres unmarked) [ES-242-5], for which, in [1], the “IC50 (50% inhibition of [3H]TCP binding)” value came to 0.6 µg/mL. For the same compound, the “inhibition of the death of nerve cells induced by L-glutamic acid” value (from here on “inhibition of the death … by L-glutamic acid”) in [2] was “inhibit the death of the nerve cells”. Further, in series [2] (setting [10]), the viability at 1 µg/mL worked out at 68%, the viability at 5 µg/mL was 73% and the viability at 10 µg/mL came out at 79%.
Regarding `COc1cc(OC)c2c(O)c3c(c(-c4c5c(c(O)c6c(OC)cc(OC)cc46)COC(C)C5OC(C)=O)c2c1)C(O)C(C)OC3` (centres unmarked) [ES-242-3], the “IC50 (50% inhibition of [3H]TCP binding)” value in [1] came to 1.8 µg/mL.
Regarding `COc1cc2c(-c3c(OC)c(C)c(O)c4c(O)c5c(cc34)C[C@](C)(O)CC5=O)c3c(c(O)c2c(O)c1C)C(=O)C[C@@](C)(O)C3` [Singueanol II], the “capability of protecting the nervous system” value in series [3] was “neither capable of protecting the nervous system”. For the same compound, in series [4], the “antagonism against N-methyl-D-aspartic acid receptors” value is on record as “nor antagnostic against N-methyl-D-aspartic acid receptors”. Also, in [5], the anti-aspartic activity entry is recorded as “exhibit anti-aspartic”. Also, the anti-bacterial activity result in [6] is “exhibit anti-aspartic and anti-bacterial activity”.
With `COc1cc(OC)c2c(O)c3c(c(-c4c5c(c(O)c6c(OC)cc(OC)cc46)COC(C)C5OC(C)=O)c2c1)C(OC(C)=O)C(C)OC3` (centres unmarked) [ES-242-2], in [1], the “IC50 (50% inhibition of [3H]TCP binding)” value amounted to 1.9 µg/mL. Further, the viability at 5 µg/mL in [7] (Rattus norvegicus, septal area, test compound 5 μg/ml, control 87, GA alone 5, read-out: survival ratio of the cells (SR)) worked out at 74%. For the same compound, the viability at 50 µg/mL in series [7] (Rattus norvegicus, septal area, test compound 50 μg/ml, control 87, GA alone 5, read-out: survival ratio of the cells (SR)) came to 74%. Further, the “inhibition of the death … by L-glutamic acid” value in [2] is on record as “inhibit the death of the nerve cells”. Moreover, in series [2] (setting [11]), the viability at 1 µg/mL worked out at 44% and the viability at 10 µg/mL is 88%.
For `COc1cc(OC)c2c(O)c3c(c(-c4c5c(c(O)c6c(OC)cc(OC)cc46)COC(C)C5OC(C)=O)c2c1)CC(C)OC3` (centres unmarked) [ES-242-1], the Solubility result in [8] (methanol, acetone, ethyl acetate and chloroform) is listed as “Readily soluble”; in [8] (water and n-hexane), “Insoluble”. In series [1], the “IC50 (50% inhibition of [3H]TCP binding)” value amounted to 0.1 µg/mL. Moreover, the “inhibition of the death … by L-glutamic acid” value in series [7] (septal area and cerebellum (Tables 2 and 3)) is reported as “inhibited the death of the nerve cells”. Moreover, the viability at 0.1 µg/mL in series [7] (Rattus norvegicus, septal area, test compound 0.1 μg/ml, control 87, GA alone 5, read-out: survival ratio of the cells (SR)) was 23%. Further, the viability at 0.5 µg/mL in series [7] (Rattus norvegicus, septal area, test compound 0.5 μg/ml, control 87, GA alone 5, read-out: survival ratio of the cells (SR)) turned out to be 73%. In [9] (100 mg/kg oral immediately after 5 min occlusion, one week, n=5, normal control 100 ± 4.7, ischaemic control 0 ± 0), the “number of normal cells in average ± standard deviation (N)” value is 24.4 ± 20.6 cells/mm. Further, the “protecting activity to ischaemic injury of the nervous system” value in series [9] (100 mg/kg oral, gerbils) was “exhibited a significant protecting activity”. The viability at 5 µg/mL in series [2] (Table 3, control 90, GA alone 44) was determined as 75%.
